Where two headings read alike, the source gives them in different places.

One assay addresses T1, BRD4(BD1) (Homo sapiens, UniProt O60885).
T1 construct: His; made in house
Description: BRD4 AlphaLisa binding assay (Alphascreen). The settings on record: Table 14; BRD4 AlphaLisa Binding Assay; read-out: Alpha screen. An outline of the steps:
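BRD4(BD1) (30 nM) incubated 20 min at room temperature with peptide (200 nM) and compound in 40 mM HEPES pH 7.0, 40 mM NaCl, 1 mM DTT, 0.01% BSA, 0.008% Brij-35, 1.2% DMSO.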
(Bead proximity is the source of the signal in Alpha formats.)

The next assay relates to MYC mRNA. Description: cMyc RNA quantification assay (QuantiGene) in MV4:11 cells. It is filed as cell-based. To be noted: read-out: MYC-MV411. The method, then:
MV4:11 (AML) or Raji (Burkitt's lymphoma) cells were seeded in a 96-well plate and incubated in the presence of various concentrations of compounds for 4 h. Relative mRNA levels were quantitated by using QuantiGene 2.0 assay (Affymetrix) according to the manufacturer's recommendation. Signals were detected by using an Envision plate reader (Perkin-Elmer). Biological duplicates were averaged and normalized to vehicle (DMSO) control to calculate percent MYC mRNA levels.

In another assay the test system is IL-6 secretion. Nature of the assay: Cell-based IL-6 quantification assay (ELISA, Mesoscale) in LPS-stimulated THP-1 cells. To be noted: Table 14, THP-1 cells, LPS, 16 h, read-out: IL6. The method in brief:
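THP-1 cells stimulated with LPS at 4 μg/mL final and exposed to compounds for 16 h. Supernatant IL-6 measured by Mesoscale ELISA and normalized to CellTiter-Glo cell content. Percent inhibition derived from that ratio.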
For orientation: An ELISA detects its analyte on a solid surface through an enzyme-linked reagent.

Where [1] appears, read: Homo sapiens, MV4-11, 4 h, Table 14, MV4:11 cells.

For `CC(=O)NC(C[C@@H]1N=C(c2ccc(Cl)cc2)c2ccccc2-c2c(C)noc21)C(F)(F)F` (mixture of isomers) [Compound 244, Mixture of N-((2S)-3-((4S)-6-(4-chlorophenyl)-1-methyl-4H-benzo[c]isoxazolo[4,5-e]azepin-4-yl)-1,1,1-trifluoropropan-2-yl)acetamide and N-((2R)-3-((4S)-6-(4-chlorophenyl)-1-methyl-4H-benzo[c]isoxazolo[4,5-e]azepin-4-yl)-1,1,1-trifluoropropan-2-yl)acetamide], the IC50 was greater than 1000 nM on BRD4(BD1); greater than 1000 nM in the assay on MYC mRNA (setting [1]); greater than 1000 nM in the assay with IL-6 secretion (Homo sapiens, THP-1, 16 h).
In the case of `CCOC(=O)NC1N=C(c2ccc(Cl)cc2)c2ccccc2-c2c(C)noc21` (single isomer, unassigned) [Compound 253, Ethyl (6-(4-chlorophenyl)-1-methyl-4H-benzo[c]isoxazolo[4,5-e]azepin-4-yl)carbamate], the IC50 on BRD4(BD1) is less than 500 nM; with MYC mRNA (setting [1]) it was less than 500 nM; in the assay on IL-6 secretion (Homo sapiens, THP-1, 16 h), less than 500 nM.
On to `CCOC(=O)NC1N=C(c2ccc(Cl)cc2)c2ccccc2-c2c(C)noc21` (single isomer, unassigned) [Compound 254, Ethyl (6-(4-chlorophenyl)-1-methyl-4H-benzo[c]isoxazolo[4,5-e]azepin-4-yl)carbamate], for which the IC50 at BRD4(BD1) is 500 to 1000 nM; in the assay on MYC mRNA (Table 14, MV4:11 cells, 4 h) it was greater than 1000 nM; in the assay with IL-6 secretion it was greater than 1000 nM.
For the compound `Cc1noc2c1-c1ccc(Cl)cc1C(c1ccc(F)cc1)=N[C@H]2CC(N)=O` [Compound 211], the IC50 on BRD4(BD1) is less than 500 nM; with MYC mRNA (setting [1]), 500 to 1000 nM; in the assay on IL-6 secretion (Homo sapiens, THP-1, 16 h) it was less than 500 nM.
Regarding `Cc1noc2c1-c1ccc(F)cc1C(c1ccc(C#N)cc1)=N[C@H]2CC(N)=O` [Compound 212], the IC50 at BRD4(BD1) is less than 500 nM; in the assay on MYC mRNA (setting [1]) it was less than 500 nM; with IL-6 secretion (Homo sapiens, THP-1, 16 h), less than 500 nM.
With `Cc1noc2c1-c1ccc(-c3ccc(N)nc3)cc1C(c1ccc(Cl)cc1)=N[C@H]2CC(N)=O` [Compound 213], the IC50 on BRD4(BD1) is less than 500 nM; in the assay on MYC mRNA (setting [1]) it was less than 500 nM; with IL-6 secretion (Homo sapiens, THP-1, 16 h) it was less than 500 nM.
Turning to `Cc1noc2c1-c1ccccc1C(c1ccc(Cl)cc1)=N[C@H]2CC(=O)NCCO` [Compound 214], the IC50 is less than 500 nM at BRD4(BD1); less than 500 nM with MYC mRNA (setting [1]); less than 500 nM in the assay on IL-6 secretion (Homo sapiens, THP-1, 16 h).
With `Cc1noc2c1-c1ccccc1C(c1ccc(Cl)cc1)=NC2C#N` (stereo not drawn) [Compound 215, 6-(4-chlorophenyl)-1-methyl-4H-benzo[c]isoxazolo[4,5-e]azepine-4-carbonitrile], the IC50 on BRD4(BD1) is greater than 1000 nM; in the assay on MYC mRNA (setting [1]) it was greater than 1000 nM; with IL-6 secretion (Homo sapiens, THP-1, 16 h), greater than 1000 nM.
As to `Cc1noc2c1-c1ccc(-c3ccc(N)nc3)cc1C(c1ccc(F)cc1)=N[C@H]2CC(N)=O` [Compound 216], the IC50 on BRD4(BD1) was less than 500 nM; in the assay on MYC mRNA (setting [1]) it was less than 500 nM; in the assay on IL-6 secretion (Homo sapiens, THP-1, 16 h), less than 500 nM.
On to `COc1ccc2c(c1)C(c1ccc(Cl)cc1)=N[C@@H](CC(N)=O)c1onc(C)c1-2` [Compound 217, 2-((4S)-6-(4-chlorophenyl)-8-methoxy-1-methyl-4H-benzo[c]isoxazolo[4,5-e]azepin-4-yl)acetamide], for which the IC50 on BRD4(BD1) is less than 500 nM; in the assay on MYC mRNA (setting [1]) it was less than 500 nM; with IL-6 secretion (Homo sapiens, THP-1, 16 h) it was less than 500 nM.
For the compound `Cc1noc2c1-c1ccccc1C(c1ccc(Cl)cc1)=NC2C(N)=O` (stereo not drawn) [Compound 218, 6-(4-chlorophenyl)-1-methyl-4H-benzo[c]isoxazolo[4,5-e]azepine-4-carboxamide], the IC50 at BRD4(BD1) was greater than 1000 nM; in the assay with MYC mRNA (setting [1]) it was greater than 1000 nM; with IL-6 secretion (Homo sapiens, THP-1, 16 h) it was greater than 1000 nM.
Regarding `COc1ccc2c(n1)-c1c(C)noc1CN=C2c1ccc(Cl)cc1` [Compound 219, 5-(4-Chlorophenyl)-2-methoxy-10-methyl-7H-isoxazolo[5,4-c]pyrido[2,3-e]azepine], the IC50 at BRD4(BD1) is greater than 1000 nM; in the assay on MYC mRNA (setting [1]), 500 to 1000 nM; in the assay on IL-6 secretion (Homo sapiens, THP-1, 16 h), greater than 1000 nM.

These data come from patent US9522920B2, “Bromodomain inhibitors and uses thereof” (Constellation Pharmaceuticals, Inc., priority 2010, dated 2016).
